This note sets out measurements from ChEMBL document CHEMBL3507680, “University of Dundee, Gates Library screen for HepG2 cell viability”.

The series is described as follows: Human HepG2 cell viability assay in 384 well format. Type of series: toxicity, cell-based. The arrangement: dose 125 nL, time 70.5 hour; cytotoxicity at 70.5 h: concentration not given beside the values. The note with it: HepG2 cells, read-out: Inhibition.
On to `CC(C)c1cc(CN2CCN(c3cccnc3)CC2)n(C)n1`, for which the cytotoxicity at 70.5 h was determined as 5.33%. The same measure for `CNC(=O)[C@@H]1C[C@@H](N)CN1C(=O)CCSCc1ccccc1`: -4.11%.

On to `N#Cc1c[nH]nc1NCc1ccc2c(c1)OCO2`, for which the cytotoxicity at 70.5 h is -10.8%. Regarding `Cn1cc(-c2cc(-c3cnn(C)c3)n(CC(=O)NC3CC3)n2)cn1`, the cytotoxicity at 70.5 h is -20.4%. As for `Cc1noc(C)c1CCC(=O)NCC1(O)CCN(c2ccccn2)C1` (stereo unspecified), the figure is -6.52%; as for `COc1ccccc1CNC(=O)N1CCCC(NS(C)(=O)=O)C1` (stereo unspecified), 15.3%. As for `CCCn1[nH]cc/c1=N\C(=O)CN1CCCC1Cn1nc(C)nc1C` (stereo unspecified), the figure is -1.59%; as for `Cn1cccc1C(=O)NC1CCN(c2ccc(OC(F)(F)F)cc2)CC1`, 16.6%; as for `O=C1COc2ccc(C(=O)N3CCCC(n4ccnc4)C3)cc2N1` (stereo unspecified), 2.98%.

With `O=C1CCOC[C@]2(CN(Cc3ccccc3)C[C@H]2c2cccc(F)c2)N1`, the cytotoxicity at 70.5 h is -2.96%.

With `COC(=O)c1ccc(CNCc2ccn(C)n2)cc1`, the cytotoxicity at 70.5 h is 17.7%. As for `CCc1nc(CNc2ccc(-c3nc(C4CC4)no3)cn2)no1`, the figure is -9.74%; as for `COc1ccc(NC(=O)NCC(C)N2CCc3ccccc32)cc1` (stereo unspecified), -11.4%. As for `O=C(O)c1ccc(F)c(S(=O)(=O)Nc2c(F)cccc2-n2cccn2)c1`, the figure is -5.11%; as for `CN1Cc2cc(F)ccc2N(CC(C)(C)O)CCC1=O`, 8.74%; as for `Cc1cc(C)n(CC(C)NC(=O)C(C)(C)c2ccccc2F)n1` (stereo unspecified), 6.99%. As for `CCN1C(=O)C[C@@H]2[C@@H]1CCN2S(=O)(=O)c1ccc(OC)cc1`, the figure is 9.29%. Take `Cc1cnc(N2C(=O)CSC2c2ccc(N(C)C)cc2)s1` (stereo unspecified): the cytotoxicity at 70.5 h is -8.63%. As for `CCOc1ccc(C(=O)CCC(=O)N(C)Cc2cnccn2)cc1C`, the figure is 10.8%; as for `CC(C)N(CCSc1ncnc2[nH]ncc12)C(C)C`, -1.52%; as for `Cc1nc2ccccc2n(Cc2nnnn2C2CC2)c1=O`, -5.13%. `CCc1nnc2n1CCN(CCC(=O)Nc1cc(C)on1)C2`: the cytotoxicity at 70.5 h is -5.92%. As for `Cc1noc(C)c1Cc1nc(C2CC2)no1`, the figure is -2.18%; as for `CC(C)n1c(C2CCCN(Cc3ccnn3C)C2)nc2ccccc21` (stereo unspecified), -9.99%; as for `Cc1ccc(CNCCN2CCOCC2)o1`, 8.67%. The same measure for `Cc1cc(CNc2cc(Cl)ccc2C)no1`: -11.6%; for `O=C(NCCNS(=O)(=O)C1CCCCC1)c1ccccc1`: -10.7%; for `Cc1nc(C2CCCN2CC(=O)N2CCc3ccccc32)no1` (stereo unspecified): 21.3%. As for `Cc1noc(C)c1CNCc1nn(-c2ccccc2)c2c1CCC2`, the figure is -3.23%.

With `CCS(=O)(=O)N1Cc2c(Cn3cccc3)nn(C(C)C)c2C1`, the cytotoxicity at 70.5 h was -2.77%.

Regarding `COc1cc2c(cc1CNC(Cc1cccs1)c1nccs1)OCCO2` (stereo unspecified), the cytotoxicity at 70.5 h is -3.19%. Consider `c1cncc(-c2ccc3c(c2)CCC32CCN(Cc3ccco3)CC2)c1`, for which the cytotoxicity at 70.5 h was -0.391%. As for `Cc1cc(C(=O)N2CCCC(C(=O)c3cccs3)C2)c(=O)[nH]c1C` (stereo unspecified), the figure is 17.8%; as for `CC(C(N)=O)N(C)CCCc1cc(-c2ccc(F)cc2)n(C)n1` (stereo unspecified), -9.74%.

Consider `CC1CCN(C(=O)C(C)n2cc(Br)cn2)CC1` (stereo unspecified), for which the cytotoxicity at 70.5 h was -3.34%. The same measure for `Cc1cc(CN(C)C(=O)c2ccnc(N(C)C)c2)no1`: -7.52%. The same measure for `O=C(c1cccs1)N1C[C@H]2CCC[C@@]2(COCC2CCOCC2)C1`: 23.2%; for `COc1cc2cc(C(=O)O)n(C)c2c(OC)c1OC`: -10.1%. As for `CCOC1CCCN(C(=O)Nc2cnn(CC(F)F)c2)C1` (stereo unspecified), the figure is -9.21%.

For `COc1cc(F)ccc1N1CCN(Cc2nc(C)c(C)o2)CC1`, the cytotoxicity at 70.5 h was -11.2%. Consider `Cc1ccnn1CCC(=O)N1C[C@@H](O)[C@H](Oc2cccc(F)c2)C1`, for which the cytotoxicity at 70.5 h was -2.79%.

In the case of `Cc1ncncc1-c1ccnc(NC(C)C)n1`, the cytotoxicity at 70.5 h was -2.82%. The same measure for `CC(=O)N1CCC(c2cnc(-c3c(C)n[nH]c3C)cn2)CC1`: -3.69%; for `Cc1nc(CN2CCCC(NCc3ccsc3)C2)no1` (stereo unspecified): 1.36%; for `COCC(C)N(C)C(=O)NC1CCN(c2ncccn2)CC1` (stereo unspecified): 7.61%. The same measure for `O=C(NCC1CC2(CO1)CN(c1nncs1)C2)C1CCC1` (stereo unspecified): -3.65%; for `CCOC(=O)CCCN1CCCC(C(=O)Nc2ccc(Cl)cn2)C1` (stereo unspecified): 15.1%; for `Cc1cnn(CC2CCCCN2CCCS(=O)(=O)N(C)C)c1` (stereo unspecified): 18.7%. As for `NC(=O)c1cnn2c1NCC(CNCC1(c3ccccc3)CCC1)C2` (stereo unspecified), the figure is 10.4%; as for `Cc1cccc(N2CCc3ncc(CNc4ccccn4)n3CC2)n1`, -3.22%; as for `Cc1ccc(CC(=O)N2CCCC(c3nc(C)cs3)C2)cn1` (stereo unspecified), -17.4%. On to `CCNc1cc(N2CCN(C(=O)c3ccc(OC)cc3)CC2)nc(C)n1`, for which the cytotoxicity at 70.5 h is -2.56%. The same measure for `CCO[C@@H]1CC[C@H]2[C@H]1OCCN2S(=O)(=O)C1CC1`: -11.4%. Regarding `CCNC(=O)c1nnc2ccc(N3CCOCC3)cc2n1`, the cytotoxicity at 70.5 h turned out to be 12.6%. The same measure for `CCn1nnc2c1C(COC)CN(C(=O)COc1ccccc1)C2` (stereo unspecified): 0.105%; for `NC(=O)c1cnc(NCC(=O)NCc2ccco2)c(Cl)c1`: -9.01%; for `CCc1ccc(C(COC)NC(=O)c2ccc(C(N)=O)cc2)o1` (stereo unspecified): 7.28%. Take `c1cncc(OCCCNC2COc3ccccc3C2)c1` (stereo unspecified): the cytotoxicity at 70.5 h is -3.91%.

As to `Cc1oncc1C(=O)N1CCC2(CCN(Cc3cccc(F)c3)C2=O)C1` (stereo unspecified), the cytotoxicity at 70.5 h was -2.01%.

Take `N#Cc1cccc(S(=O)(=O)N2CC(CC(=O)O)c3ccccc32)c1` (stereo unspecified): the cytotoxicity at 70.5 h was -4.94%.

For `CC(C)c1nccn1C1CCCN(C(=O)CCCc2ccccn2)C1` (stereo unspecified), the cytotoxicity at 70.5 h is -10.5%. The same measure for `Cc1ccc(Cn2nc(C)c3c(C(=O)O)c(Cl)c(C)nc32)cc1`: -12.9%. For `CCc1nc2c(c(NCc3cc(-c4cccnc4)no3)n1)CCNCC2`, the cytotoxicity at 70.5 h stood at 7.07%. Turning to `CCOC(=O)Cc1csc(NC(=O)c2cc3n(n2)CCCO3)n1`, the cytotoxicity at 70.5 h is -2.3%. As for `COc1cc2cc3c(nc2cc1OC)OCCN(Cc1cccs1)C3`, the figure is 28%.

As for `CCC(C)n1c(SCC(=O)N2CCOCC2)nc2cc(C)[nH]c2c1=O` (stereo unspecified), the cytotoxicity at 70.5 h is 13.3%. As for `CN1C(=O)CO[C@H](c2ccc(NC(=O)c3cccnc3)cc2)[C@H]1CO`, the figure is -2.53%; as for `Cc1nc(N(C)C)nc(-c2cccc(-c3ccn(CCCO)n3)c2)c1C`, -7.13%. As for `CN(Cc1nccn1CC(F)(F)F)C(=O)c1ccc(F)c(F)c1`, the figure is -1.82%; as for `CC(Oc1ccccc1C(F)(F)F)C(=O)NCC(=O)N1CCCC1` (stereo unspecified), -6.07%; as for `CN1CC[C@]2(CN(C(=O)c3ccc[nH]3)C[C@H]2c2ccccc2)C1=O`, -3.54%.
